Results taken from the SangsterLogP compilation.

Assay: method code SF-AS, from DOI: 10.2298/ciceq100329044p
Conditions: pH 7.4

Compound | logD
Cc1nc2ccccc2n1Cc1ccc(Cl)cc1 | 4.07
Cc1nc2ccccc2n1Cc1ccccc1 | 3.51
Nc1nc2ccccc2n1C(=O)c1ccccc1 | 2.9
Cc1nc2ccccc2n1C(=O)c1ccccc1 | 3.38
Cc1nc2ccccc2n1C(=O)c1ccc(Cl)cc1 | 3.95
Cc1ccc(Cn2c(C)nc3ccccc32)cc1 | 4.01
Cc1ccc(C(=O)n2c(N)nc3ccccc32)cc1 | 3.35
Cc1ccc(C(=O)n2c(C)nc3ccccc32)cc1 | 3.87
Nc1nc2ccccc2n1C(=O)c1ccc(Cl)cc1 | 3.45
